Reference: ChEMBL document CHEMBL1125358, “Effect of conformational mobility and hydrogen-bonding interactions on the selectivity of some guanidinoaryl-substituted mechanism-based inhibitors of trypsin-like serine proteases” (J Med Chem, 1992)
Where “and” joins values, the source holds several entries; their conditions need not be identical. Equal values may be shown once.

Key:
[1] = target: T1, Urokinase-type plasminogen activator (Homo sapiens, UniProt P00749); test: Compound was tested for the rate constant of deacylation against the enzyme Urokinase-type plasminogen activator
Plasminogen [2] = target: T2, Plasminogen (Homo sapiens, UniProt P00747); test: Compound was tested for its binding affinity against the enzyme plasmin
T2 sequence (P00747 97-580 limits assumed): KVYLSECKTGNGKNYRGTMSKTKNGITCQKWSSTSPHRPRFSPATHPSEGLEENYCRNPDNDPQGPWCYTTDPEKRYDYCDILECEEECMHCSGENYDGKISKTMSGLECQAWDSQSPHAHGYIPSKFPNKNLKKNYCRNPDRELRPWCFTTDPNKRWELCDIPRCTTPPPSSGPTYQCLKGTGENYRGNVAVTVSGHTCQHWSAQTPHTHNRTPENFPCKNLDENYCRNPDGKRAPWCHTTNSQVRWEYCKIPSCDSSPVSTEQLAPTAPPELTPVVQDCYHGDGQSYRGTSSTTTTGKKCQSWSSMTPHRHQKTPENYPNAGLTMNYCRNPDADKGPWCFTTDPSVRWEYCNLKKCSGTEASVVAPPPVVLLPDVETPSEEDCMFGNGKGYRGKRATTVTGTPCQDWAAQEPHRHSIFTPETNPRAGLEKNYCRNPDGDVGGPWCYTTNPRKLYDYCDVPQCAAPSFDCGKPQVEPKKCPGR
T2 sequence (P00747 581-810 limits assumed): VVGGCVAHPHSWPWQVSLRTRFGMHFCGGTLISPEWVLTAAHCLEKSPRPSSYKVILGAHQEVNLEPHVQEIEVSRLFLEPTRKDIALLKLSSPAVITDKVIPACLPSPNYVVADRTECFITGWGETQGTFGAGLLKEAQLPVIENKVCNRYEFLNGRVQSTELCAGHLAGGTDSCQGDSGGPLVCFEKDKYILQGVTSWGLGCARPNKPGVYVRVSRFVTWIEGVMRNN

Plasminogen [3] = target: T2, Plasminogen; test: Compound was tested for the rate constant of acylation against the enzyme plasmin
[4] = target: T1, Urokinase-type plasminogen activator
Description: Compound was tested for the rate constant of acylation against the enzyme Urokinase-type plasminogen activator

Prothrombin [5] = target: T3, Prothrombin (Homo sapiens, UniProt P00734); test: Compound was tested for the rate constant of deacylation against thrombin
Plasminogen [6] = target: T2, Plasminogen; test: Compound was tested for the rate constant for deacylation against plasmin; kd was too fast to measure
Prothrombin [7] = target: T3, Prothrombin; test: Compound was tested for its binding affinity against the enzyme thrombin
[8] = target: T1, Urokinase-type plasminogen activator; test: Compound was tested for its binding affinity against the enzyme Urokinase-type plasminogen activator
Prothrombin [9] = target: T3, Prothrombin; test: Compound was tested for the rate constant of acylation against the enzyme thrombin
Chymotrypsinogen A [10] = target: T4, Chymotrypsinogen A (Bos taurus, UniProt P00766); test: Compound was tested for the rate constant of deacylation against alpha-chymotrypsin; kd was too fast to measure
Serine protease 1 [11] = target: T5, Serine protease 1 (Bos taurus, UniProt P00760); test: Compound was tested for the rate constant of deacylation against the enzyme trypsin
T5 sequence (P00760 whole entry): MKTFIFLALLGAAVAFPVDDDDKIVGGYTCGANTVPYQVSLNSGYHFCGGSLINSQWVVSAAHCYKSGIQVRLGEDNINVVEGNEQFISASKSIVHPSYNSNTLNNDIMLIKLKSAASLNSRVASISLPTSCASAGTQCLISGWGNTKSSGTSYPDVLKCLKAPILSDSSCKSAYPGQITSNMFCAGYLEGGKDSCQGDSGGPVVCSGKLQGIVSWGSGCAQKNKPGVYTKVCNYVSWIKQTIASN

Chymotrypsinogen A [12] = target: T4, Chymotrypsinogen A; test: Compound was tested for its binding affinity against the enzyme alpha-chymotrypsin
Trypsin II (Bos taurus) = target: T6, Trypsin II (Bos taurus) (UniProt Q29463); test: Compound was tested for the rate constant of acylation against the enzyme trypsin
T6 sequence (whole entry): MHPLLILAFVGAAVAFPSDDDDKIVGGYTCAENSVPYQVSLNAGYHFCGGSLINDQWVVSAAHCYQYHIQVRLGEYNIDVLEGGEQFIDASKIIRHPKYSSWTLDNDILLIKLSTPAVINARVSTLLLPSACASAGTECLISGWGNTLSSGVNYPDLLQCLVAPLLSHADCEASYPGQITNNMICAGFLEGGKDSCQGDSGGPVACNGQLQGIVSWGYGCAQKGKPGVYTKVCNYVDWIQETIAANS

[13] = target: T1, Urokinase-type plasminogen activator; test: Compound was tested for the rate constant of deacylation against Urokinase-type plasminogen activator
Serine protease 1 [14] = target: T5, Serine protease 1; test: Compound was tested for its binding affinity against the enzyme trypsin
[15] = target: T7, Serine protease 1 (Bos taurus) (UniProt P00760)
T7 sequence (whole entry): T5 sequence (P00760 whole entry)

[16] = target: T1, Urokinase-type plasminogen activator; test: Compound was tested for the rate constant of deacylation against the enzyme Urokinase-type plasminogen activator; kd was too fast to measure
[17] = target: T1, Urokinase-type plasminogen activator; test: Compound was tested for the rate constant of deacylation against Urokinase-type plasminogen activator
[18] = target: Tissue-type plasminogen activator (Homo sapiens, UniProt P00750); test: Compound was tested for its binding affinity against the enzyme Tissue plasminogen activator
Tissue-type plasminogen activator, sequence (P00750 whole entry): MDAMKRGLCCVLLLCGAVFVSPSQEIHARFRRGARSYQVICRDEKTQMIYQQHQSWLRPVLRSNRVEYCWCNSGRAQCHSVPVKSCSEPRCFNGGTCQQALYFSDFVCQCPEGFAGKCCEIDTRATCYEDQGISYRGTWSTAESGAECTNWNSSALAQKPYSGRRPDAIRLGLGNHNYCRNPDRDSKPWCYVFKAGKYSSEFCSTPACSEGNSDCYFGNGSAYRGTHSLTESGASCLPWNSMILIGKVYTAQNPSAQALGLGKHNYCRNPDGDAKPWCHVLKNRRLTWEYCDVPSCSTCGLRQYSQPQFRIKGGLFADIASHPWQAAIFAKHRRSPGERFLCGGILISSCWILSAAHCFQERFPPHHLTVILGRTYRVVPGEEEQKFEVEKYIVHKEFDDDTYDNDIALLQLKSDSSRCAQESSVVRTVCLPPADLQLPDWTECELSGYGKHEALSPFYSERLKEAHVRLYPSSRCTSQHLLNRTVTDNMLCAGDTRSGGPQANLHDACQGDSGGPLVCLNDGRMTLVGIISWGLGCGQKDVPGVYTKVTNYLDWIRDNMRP

Row | Structure (SMILES) | Kd [1] [s⁻¹] | Ki (Plasminogen [2]) [µM] | Ka (Plasminogen [3]) [min⁻¹] | Ka [4] [min⁻¹] | Kd (Prothrombin [5]) [s⁻¹] | Ki (Prothrombin [7]) [µM] | Ki [8] [µM] | Ka (Prothrombin [9]) [min⁻¹] | Kd (Serine protease 1 [11]) [s⁻¹] | Ki (Chymotrypsinogen A [12]) [µM] | Kd [13] [s⁻¹] | Ki (Serine protease 1 [14]) | Ka [15] [min⁻¹] | also measured
1 | C=C1CCC(c2ccc(CNC(=N)N)cc2)C(=O)O1 (centres undefined) | 0.000733 | 466 | 57 | 9.8 | 0.0001 | 37.9 | 0.35 | 5.58 | – | – | – | – | – | Kd (Plasminogen [6]): Fast
2 | C=C1CC(c2ccc(NC(=N)N)cc2)C(NC(=O)c2ccccc2)C(=O)O1 (centres undefined) | – | – | – | – | – | – | – | – | 0.00025 | 0.46 | 3.3e-05 | 10 µM | – | Kd (Chymotrypsinogen A [10]): Fast; Ka (Trypsin II (Bos taurus)): 10.2 min⁻¹
3 | C=C1CC(c2ccc(NC(=N)N)cc2)CC(=O)O1 (centres undefined) | – | – | – | – | – | – | 0.12 | – | 3.3e-05 | – | 0.00015 | 9.4 µM | – | –
4 | N=C(N)Nc1ccc(C2CC(=O)O/C(=C\I)C2)cc1 (centres undefined) | – | – | – | 2.61 | – | – | 7.83 | – | 0.00033 | – | – | 4.28 µM | 0.54 | Kd [16]: Fast
5 | N=C(N)Nc1ccc(C2C/C(=C/I)OC(=O)C2NC(=O)c2ccccc2)cc1 (centres undefined) | 1.33e-05 | – | – | – | – | – | 18.7 | – | – | 0.17 | – | 0.67 µM and 2.76 µM | – | Kd [17]: 1.3e-05 s⁻¹
6 | N=C(N)NCc1ccc(C2CC/C(=C/I)OC2=O)cc1 (centres undefined) | – | 1.19 | 10.2 | 7.56 | 0.000217 | 14.8 | – | 27.2 | – | – | – | 0.08 µM | 18.4 | Ki [18]: 0.12 µM
